Reference: patent US20240425454A1, “IONIZABLE CATIONIC COMPOUND” (SEQIRUS INC., priority 2021, published 2024)

Experiment: TNS fluorescence pKa protocol on saRNA-LNP
Format: physicochemical
Conditions: saRNA-LNP containing the lipid, in a series of buffers; saRNA-LNP with the lipid; TNS 6 μM, pH 4 to 9.5, 25° C.; read-out: Apparent pKa
Description: In a black 96-well plate, solutions of saRNA-LNP (final assay concentration 2 μg/mL total RNA) in a series of buffers ranging from pH 4 to 9.5 were prepared. Buffers between pH 4 to 7.6 were prepared from disodium phosphate and citric acid. Buffers from 7.8 to 9.5 were prepared by titrating tris buffer with 10 N sodium hydroxide. To each well was added 6-(p-Toluidino)-2-naphthalenesulfonic acid sodium salt (TNS) in water to a final assay concentration of 6 μM. The fluorescence was read on a plate reader at 25° C. with an excitation setting of 321 nm and an emission setting of 445 nm. The intensity values were plotted as a function of pH using GraphPad Prism and were fit with a sigmoidal dose response curve. The apparent pKa was determined as the EC50 of this curve where half of the ionizable amines are expected to be protonated (see FIG. 1).

| SMILES | pKa |
| --- | --- |
| CCCCC(CCCC)OC(=O)CCCCCCCCC(CCCCCCCCC(=O)OC(CCCC)CCCC)OC(=O)CSCCN(CC)CC [SL11] | 5.6 |
| CCCCC(CCCC)OC(=O)CCCCCCCCC(CCCCCCCCC(=O)OC(CCCC)CCCC)OC(=O)COCCCN(C)C [SL09] | 7.1 |
| CCCCC(CCCC)OC(=O)CCCCCCCCC(CCCCCCCCC(=O)OC(CCCC)CCCC)OC(=O)CSCCN(C)C [SL10] | 5.8 |
| CCCCC(CCCC)OC(=O)CCCCCCCCC(CCCCCCCCC(=O)OC(CCCC)CCCC)OC(=O)COC1CCN(CCCO)CC1 [SL12] | 6.9 |
| CCCCC(CCCC)OC(=O)CCCCCCCCC(CCCCCCCCC(=O)OC(CCCC)CCCC)OC(=O)COCCN(C)C [SL08] | 7 |
| CCCCC(CCCC)OC(=O)CCCCCCCCC(CCCCCCCCC(=O)OC(CCCC)CCCC)OC(=O)COC1CCN(C)CC1 [SL06] | 7.1 |
| CCCCC(CCCC)OC(=O)CCCCCCCCC(CCCCCCCCC(=O)OC(CCCC)CCCC)OC(=O)CSC1CCN(C)CC1 [SL07] | 6.1 |
